ChEMBL document CHEMBL1201861, “Genomics of Drug Sensitity in Cancer screening data, Wellcome Trust Sanger Institute”

Experiments:
Assay in all cases: cells
Type in all cases: functional, cell-based, Homo sapiens
UMC-11 = conditions: Homo sapiens, UMC-11;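 further: growth inhibition of UMC-11 cells, read out with a cell viability assay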
Description: SANGER: Inhibition of human UMC-11 cell growth in a cell viability assay.

CAPAN-1 = conditions: Homo sapiens, CAPAN-1;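 further: growth suppression of CAPAN-1 cells, read out by a cell viability assay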
Description: SANGER: Inhibition of human CAPAN-1 cell growth in a cell viability assay.

NCI-H2228 = conditions: Homo sapiens, NCI-H2228;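 further: growth inhibition of human NCI-H2228 cells, read out by a cell viability assay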
Description: SANGER: Inhibition of human NCI-H2228 cell growth in a cell viability assay.

COLO-679 = conditions: Homo sapiens, COLO-679
Description: SANGER: Inhibition of human COLO-679 cell growth in a cell viability assay.

NCI-H650 = conditions: Homo sapiens, NCI-H650;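 further: growth inhibition of NCI-H650 cells, read out by a viability assay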
Description: SANGER: Inhibition of human NCI-H650 cell growth in a cell viability assay.

8305C = conditions: Homo sapiens, 8305C
Description: SANGER: Inhibition of human 8305C cell growth in a cell viability assay.

HSC-2 = conditions: Homo sapiens, HSC-2;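 further: growth inhibition of human HSC-2 cells, read out by a cell viability assay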
Description: SANGER: Inhibition of human HSC-2 cell growth in a cell viability assay.

SK-MEL-28 = conditions: Homo sapiens, SK-MEL-28;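 further: growth inhibition of human SK-MEL-28 cells, read out with a cell viability assay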
Description: SANGER: Inhibition of human SK-MEL-28 cell growth in a cell viability assay.

SW626 = conditions: Homo sapiens, SW626;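 further: growth inhibition of SW626 cells, measured with a cell viability assay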
Description: SANGER: Inhibition of human SW626 cell growth in a cell viability assay.

786-0 = conditions: Homo sapiens
Description: SANGER: Inhibition of human 786-0 cell growth in a cell viability assay.

HPAF-II = conditions: Homo sapiens, HPAF-II;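 further: growth inhibition of HPAF-II cells, read out with a cell viability assay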
Description: SANGER: Inhibition of human HPAF-II cell growth in a cell viability assay.

SW1783 = conditions: Homo sapiens, SW1783;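 further: cell growth inhibition measured with a viability assay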
Description: SANGER: Inhibition of human SW1783 cell growth in a cell viability assay.

NCI-H520 = conditions: Homo sapiens, NCI-H520;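 further: growth inhibition of NCI-H520 cells, measured by a cell viability assay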
Description: SANGER: Inhibition of human NCI-H520 cell growth in a cell viability assay.

T84 = conditions: Homo sapiens, T84;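 further: growth inhibition measured with a cell viability readout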
Description: SANGER: Inhibition of human T84 cell growth in a cell viability assay.

SK-MES-1 = conditions: Homo sapiens, SK-MES-1;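 further: growth inhibition of human SK-MES-1 cells, read out with a cell viability assay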
Description: SANGER: Inhibition of human SK-MES-1 cell growth in a cell viability assay.

GAMG = conditions: Homo sapiens, GAMG;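 further: cell growth inhibition measured by a viability assay in the GAMG human cell line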
Description: SANGER: Inhibition of human GAMG cell growth in a cell viability assay.

A549 = conditions: Homo sapiens, A549;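 further: growth inhibition of A549 cells, read out with a cell viability assay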
Description: SANGER: Inhibition of human A549 cell growth in a cell viability assay.

CHL-1 = conditions: Homo sapiens, CHL-1;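 further: cell growth inhibition, read out with a cell viability assay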
Description: SANGER: Inhibition of human CHL-1 cell growth in a cell viability assay.

NCI-H596 = conditions: Homo sapiens, NCI-H596;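 further: growth inhibition of NCI-H596 cells, read out with a cell viability assay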
Description: SANGER: Inhibition of human NCI-H596 cell growth in a cell viability assay.

MIA PaCa-2 = conditions: Homo sapiens, MIA PaCa-2;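 further: growth inhibition of MIA PaCa-2 cells, read out with a cell viability assay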
Description: SANGER: Inhibition of human MIA-PaCa-2 cell growth in a cell viability assay.

MeWo = conditions: Homo sapiens, MeWo;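 further: growth inhibition of MeWo cells, determined by a cell viability readout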
Description: SANGER: Inhibition of human Mewo cell growth in a cell viability assay.

WM-115 = conditions: Homo sapiens, WM-115
Description: SANGER: Inhibition of human WM-115 cell growth in a cell viability assay.

NCI-H2170 = conditions: Homo sapiens, NCI-H2170;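 further: cell viability assay measuring growth inhibition of human NCI-H2170 cancer cells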
Description: SANGER: Inhibition of human NCI-H2170 cell growth in a cell viability assay.

KYSE-140 = conditions: Homo sapiens, KYSE-140;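 further: cell viability assay measuring growth inhibition in human KYSE-140 cells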
Description: SANGER: Inhibition of human KYSE-140 cell growth in a cell viability assay.

Ca-Ski = conditions: Homo sapiens, Ca-Ski;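 further: cell viability assay measuring inhibition of Ca-Ski cell growth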
Description: SANGER: Inhibition of human Ca-Ski cell growth in a cell viability assay.

SW1573 = conditions: Homo sapiens, SW1573;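 further: growth inhibition of SW1573 cells, read out with a cell viability assay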
Description: SANGER: Inhibition of human SW1573 cell growth in a cell viability assay.

DoTc2-4510 = conditions: Homo sapiens, DoTc2-4510
VMRC-RCZ = conditions: Homo sapiens, VMRC-RCZ;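 further: growth inhibition measured with a cell viability assay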
Description: SANGER: Inhibition of human VMRC-RCZ cell growth in a cell viability assay.

647-V = conditions: Homo sapiens, 647-V;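 further: growth inhibition of 647-V cells, read out with a cell viability assay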
Description: SANGER: Inhibition of human 647-V cell growth in a cell viability assay.

TYK-nu = conditions: Homo sapiens, TYK-nu;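 further: growth inhibition of human TYK-nu cells, read out by a cell viability assay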
Description: SANGER: Inhibition of human TYK-nu cell growth in a cell viability assay.

MFE-280 = conditions: Homo sapiens, MFE-280;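 further: growth inhibition of MFE-280 cells, determined with a cell viability readout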
Description: SANGER: Inhibition of human MFE-280 cell growth in a cell viability assay.

LN-405 = conditions: Homo sapiens, LN-405
Description: SANGER: Inhibition of human LN-405 cell growth in a cell viability assay.

COLO-741 = conditions: Homo sapiens, COLO-741
Description: SANGER: Inhibition of human COLO-741 cell growth in a cell viability assay.

HCC70 = conditions: Homo sapiens, HCC70;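 further: cell viability assay measuring how strongly the compound suppresses proliferation of HCC70 cells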
Description: SANGER: Inhibition of human HCC70 cell growth in a cell viability assay.

Detroit 562 = conditions: Homo sapiens, Detroit 562;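 further: growth inhibition of human Detroit 562 cells, read out by a cell viability assay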
Description: SANGER: Inhibition of human Detroit562 cell growth in a cell viability assay.

MDA-MB-415 = conditions: Homo sapiens, MDA-MB-415
HCT-15 = conditions: Homo sapiens, HCT-15;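 further: cell viability readout, IC50 reflecting suppression of HCT-15 cell growth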
Description: SANGER: Inhibition of human HCT-15 cell growth in a cell viability assay.

G-361 = conditions: Homo sapiens, G-361

Structure (SMILES) | IC50 (UMC-11) [µM] | IC50 (CAPAN-1) [µM] | IC50 (NCI-H2228) [µM] | IC50 (COLO-679) [µM] | IC50 (HSC-2) [µM] | IC50 (SW626) [µM] | IC50 (786-0) [µM] | IC50 (HPAF-II) [µM] | IC50 (SW1783) [µM] | IC50 (SK-MES-1) [µM] | IC50 (GAMG) [µM] | IC50 (A549) [µM] | IC50 (CHL-1) [µM] | IC50 (MIA PaCa-2) [µM] | IC50 (MeWo) [µM] | IC50 (WM-115) [µM] | IC50 (KYSE-140) [µM] | IC50 (SW1573) [µM] | IC50 (DoTc2-4510) [µM] | IC50 (647-V) [µM] | also measured
COc1cc2c(Nc3ccc(NC(=O)c4ccccc4)cc3)ncnc2cc1OCCCN1CCOCC1 | 2.37 | > 4 | > 4 | > 4 | > 4 | > 4 | > 4 | > 4 | > 4 | > 4 | > 4 | 2.64 | 3.42 | 3.91 | > 4 | > 4 | > 4 | > 4 | > 4 | > 4 | IC50 (NCI-H650): > 4 µM; IC50 (8305C): > 4 µM; IC50 (SK-MEL-28): > 4 µM; IC50 (NCI-H520): > 4 µM; IC50 (T84): > 4 µM; IC50 (NCI-H596): > 4 µM; IC50 (NCI-H2170): > 4 µM; IC50 (Ca-Ski): > 4 µM; IC50 (VMRC-RCZ): > 4 µM; IC50 (TYK-nu): > 4 µM; IC50 (MFE-280): 3.41 µM; IC50 (LN-405): > 4 µM; IC50 (COLO-741): > 4 µM; IC50 (HCC70): > 4 µM; IC50 (Detroit 562): 1.73 µM; IC50 (MDA-MB-415): > 4 µM
CC(C)c1ccccc1Cc1cc(C(=O)Nc2ccc(S(=O)(=O)c3ccccc3C(C)(C)C)cc2)c(O)c(O)c1O | 1.31 | 10.8 | 0.662 | 0.234 | 0.664 | 0.423 | 6.97 | 0.228 | 0.213 | 1.04 | 0.212 | 0.0141 | 0.0119 | 0.479 | 0.484 | 1.21 | 0.186 | 0.24 | 1.48 | 0.0884 | IC50 (NCI-H650): 0.646 µM; IC50 (HCT-15): 0.202 µM; IC50 (8305C): 3.91 µM; IC50 (SK-MEL-28): 1.39 µM; IC50 (NCI-H520): 0.606 µM; IC50 (T84): 13.9 µM; IC50 (NCI-H596): 3.32 µM; IC50 (G-361): 0.125 µM; IC50 (NCI-H2170): 1 µM; IC50 (VMRC-RCZ): 7.75 µM; IC50 (TYK-nu): 0.324 µM; IC50 (MFE-280): 4.59 µM; IC50 (LN-405): 1.58 µM; IC50 (COLO-741): 1.37 µM; IC50 (HCC70): 0.858 µM; IC50 (Detroit 562): 1.27 µM
CN(C)C(=N)NC(=N)N [METFORMIN] | > 20000 | > 20000 | > 20000 | > 20000 | 12100 | > 20000 | > 20000 | 7740 | > 20000 | > 20000 | > 20000 | 4540 | 19500 | > 20000 | > 20000 | > 20000 | > 20000 | > 20000 | > 20000 | > 20000 | IC50 (HCT-15): 8890 µM; IC50 (Ca-Ski): > 20000 µM; IC50 (TYK-nu): 16500 µM; IC50 (HCC70): > 20000 µM; IC50 (Detroit 562): 16500 µM; IC50 (MDA-MB-415): 16800 µM
CC1(C)CNc2cc(NC(=O)c3cccnc3NCc3ccncc3)ccc21 [MOTESANIB] | > 2 | > 2 | > 2 | > 2 | > 2 | > 2 | > 2 | > 2 | > 2 | > 2 | > 2 | > 2 | > 2 | > 2 | > 2 | > 2 | > 2 | > 2 | > 2 | > 2 | IC50 (NCI-H650): > 2 µM; IC50 (8305C): > 2 µM; IC50 (SK-MEL-28): > 2 µM; IC50 (NCI-H520): > 2 µM; IC50 (T84): > 2 µM; IC50 (NCI-H596): > 2 µM; IC50 (NCI-H2170): > 2 µM; IC50 (Ca-Ski): > 2 µM; IC50 (VMRC-RCZ): > 2 µM; IC50 (TYK-nu): > 2 µM; IC50 (MFE-280): > 2 µM; IC50 (LN-405): > 2 µM; IC50 (COLO-741): > 2 µM; IC50 (HCC70): > 2 µM; IC50 (Detroit 562): > 2 µM; IC50 (MDA-MB-415): > 2 µM
CCN(CC)CCCCNc1ncc2cc(-c3cc(OC)cc(OC)c3)c(NC(=O)NC(C)(C)C)nc2n1 [PD-173074] | > 2 | > 2 | > 2 | > 2 | > 2 | > 2 | > 2 | > 2 | > 2 | > 2 | > 2 | > 2 | > 2 | > 2 | > 2 | > 2 | > 2 | > 2 | > 2 | > 2 | IC50 (NCI-H650): > 2 µM; IC50 (8305C): > 2 µM; IC50 (SK-MEL-28): > 2 µM; IC50 (NCI-H520): > 2 µM; IC50 (T84): > 2 µM; IC50 (NCI-H596): > 2 µM; IC50 (NCI-H2170): > 2 µM; IC50 (Ca-Ski): > 2 µM; IC50 (VMRC-RCZ): > 2 µM; IC50 (TYK-nu): > 2 µM; IC50 (MFE-280): 0.859 µM; IC50 (LN-405): > 2 µM; IC50 (COLO-741): > 2 µM; IC50 (HCC70): > 2 µM; IC50 (Detroit 562): > 2 µM; IC50 (MDA-MB-415): > 2 µM
